In patent publication US11299461B2 (priority 2018, dated 2022):

target: LF 263-C catalytic domain (anthrax lethal factor) (Bacillus anthracis, UniProt P15917); assay: biochemical
Sequence (P15917 296-809 limits assumed): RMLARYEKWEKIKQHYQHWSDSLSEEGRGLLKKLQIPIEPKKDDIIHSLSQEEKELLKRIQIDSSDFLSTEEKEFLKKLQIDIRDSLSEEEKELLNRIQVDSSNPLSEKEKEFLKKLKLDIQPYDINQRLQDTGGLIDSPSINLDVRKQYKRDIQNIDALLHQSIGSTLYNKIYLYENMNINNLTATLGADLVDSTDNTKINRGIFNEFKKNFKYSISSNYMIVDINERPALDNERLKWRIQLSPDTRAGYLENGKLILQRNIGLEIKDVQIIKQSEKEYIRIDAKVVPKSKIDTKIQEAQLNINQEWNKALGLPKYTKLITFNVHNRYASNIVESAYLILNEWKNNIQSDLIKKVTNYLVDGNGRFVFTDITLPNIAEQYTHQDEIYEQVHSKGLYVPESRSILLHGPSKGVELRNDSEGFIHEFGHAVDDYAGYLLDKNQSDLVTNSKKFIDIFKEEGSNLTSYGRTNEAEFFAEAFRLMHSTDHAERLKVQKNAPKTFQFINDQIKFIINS

Compared with Cc1cc(C[C@H](CCCCN[C@@H](c2ccc(F)cn2)C(C)C)C(=O)NO)cc(Cl)c1F [Compound 30, (S)-2-(3-chloro-4-fluoro-5-methylbenzyl)-6-(((R)-1-(5-fluoropyridin-2-yl)-2-methylpropyl)amino)-N-hydroxyhexanamide], Cc1cc(C[C@H](CCCCN[C@H](c2ccc(F)cn2)C(C)C)C(=O)NO)cc(C)c1F [Compound 26, (S)-2-(4-fluoro-3,5-dimethylbenzyl)-6-(((S)-1-(5-fluoropyridin-2-yl)-2-methylpropyl)amino)-N-hydroxyhexanamide] is 3.5-fold higher in Ki: 0.25 nM for the first, 0.87 nM for the second.

CC[C@@H](NCCCC[C@@H](Cc1cc(C)c(F)c(C)c1)C(=O)NO)c1ccc(F)cn1 [Compound 28, (S)-2-(4-fluoro-3,5-dimethylbenzyl)-6-(((R)-1-(5-fluoropyridin-2-yl)propyl)amino)-N-hydroxyhexanamide] and Cc1cc(C[C@H](CCCCN[C@H](CO)c2ccc(F)cn2)C(=O)NO)cc(C)c1F [Compound 12, (S)-2-(4-fluoro-3,5-dimethylbenzyl)-6-(((S)-1-(5-fluoropyridin-2-yl)-2-hydroxyethyl)amino)-N-hydroxyhexanamide] are the same in Ki: 0.08 nM for the first, 0.08 nM for the second.

CN(CCCC[C@@H](Cc1cc(Cl)c(F)c(Cl)c1)C(=O)NO)Cc1ccc(F)cn1 [Compound 33, (S)-2-(3,5-dichloro-4-fluorobenzyl)-6-(((5-fluoropyridin-2-yl)methyl)(methyl)amino)-N-hydroxyhexanamide] and Cc1cc(C[C@H](CCCCN(C)Cc2ccc(F)cn2)C(=O)NO)cc(Cl)c1F [Compound 29, (S)-2-(3-chloro-4-fluoro-5-methylbenzyl)-6-(((5-fluoropyridin-2-yl)methyl)(methyl)amino)-N-hydroxyhexanamide] are within 1.5-fold of each other in Ki: 1.6 nM for the first, 1.1 nM for the second.

Going from CO[C@H](C[C@H](CCCCN(CCO)Cc1ncc(F)cc1Cl)C(=O)NO)c1ccc(F)cc1 [Compound 47, (S)-6-(((3-chloro-5-fluoropyridin-2-yl)methyl)(2-hydroxyethyl)amino)-2-((R)-2-(4-fluorophenyl)-2-methoxyethyl)-N-hydroxyhexanamide] to CO[C@H](C[C@H](CCCCN(C)Cc1ccc(Cl)cn1)C(=O)NO)c1ccc(F)cc1 [Compound 42, (S)-6-(((5-chloropyridin-2-yl)methyl)(methyl)amino)-2-((R)-2-(4-fluorophenyl)-2-methoxyethyl)-N-hydroxyhexanamide], the Ki falls from 53.5 nM to 3 nM (18-fold). The second binds more tightly here.

Going from CCN(CCCC[C@@H](Cc1cc(C)c(F)c(C)c1)C(=O)NO)[C@H](C)c1ccc(OC)cn1 [Compound 17, (S)-6-(ethyl((R)-1-(5-methoxypyridin-2-yl)ethyl)amino)-2-(4-fluoro-3,5-dimethylbenzyl)-N-hydroxyhexanamide] to COc1ccc([C@@H](C)NCCCC[C@@H](Cc2cc(C)c(F)c(C)c2)C(=O)NO)nc1 [Compound 16, (S)-2-(4-fluoro-3,5-dimethylbenzyl)-N-hydroxy-6-(((R)-1-(5-methoxypyridin-2-yl)ethyl)amino)hexanamide], the Ki falls from 4.5 nM to 0.31 nM (15-fold).

CO[C@H](C[C@H](CCCCN(C)Cc1cccc(C)n1)C(=O)NO)c1ccc(F)cc1 [Compound 45, (S)-2-((R)-2-(4-fluorophenyl)-2-methoxyethyl)-N-hydroxy-6-(methyl((6-methylpyridin-2-yl)methyl)amino)hexanamide] and CO[C@H](C[C@H](CCCCN(C)Cc1cc(C)ccn1)C(=O)NO)c1ccc(F)cc1 [Compound 46, (S)-2-((R)-2-(4-fluorophenyl)-2-methoxyethyl)-N-hydroxy-6-(methyl((4-methylpyridin-2-yl)methyl)amino)hexanamide] are within 1.5-fold of each other in Ki: 15.8 nM for the first, 14 nM for the second.

Compared with CO[C@H](C[C@H](CCCCN[C@@H](c1ccc(Cl)cn1)C(C)C)C(=O)NO)c1ccc(F)cc1 [Compound 51, (S)-6-(((R)-1-(5-chloropyridin-2-yl)-2-methylpropyl)amino)-2-((R)-2-(4-fluorophenyl)-2-methoxyethyl)-N-hydroxyhexanamide], CO[C@H](C[C@H](CCCCN[C@H](C)c1ccc(Cl)cn1)C(=O)NO)c1ccc(F)cc1 [Compound 55, (S)-6-(((R)-1-(5-chloropyridin-2-yl)ethyl)amino)-2-((R)-2-(4-fluorophenyl)-2-methoxyethyl)-N-hydroxyhexanamide] is 3-fold higher in Ki: 0.54 nM for the first, 1.6 nM for the second. The first binds more tightly here.

CC[C@@H](NCCCC[C@@H](Cc1cc(C)c(F)c(C)c1)C(=O)NO)c1ncc(F)cc1F [Compound 25, (S)-6-(((R)-1-(3,5-difluoropyridin-2-yl)propyl)amino)-2-(4-fluoro-3,5-dimethylbenzyl)-N-hydroxyhexanamide] and Cc1cc(C[C@H](CCCCN[C@@H](c2ccc(F)cn2)C(C)C)C(=O)NO)cc(C)c1F [Compound 21, (S)-2-(4-fluoro-3,5-dimethylbenzyl)-6-(((R)-1-(5-fluoropyridin-2-yl)-2-methylpropyl)amino)-N-hydroxyhexanamide] are within 1.5-fold of each other in Ki: 0.12 nM for the first, 0.11 nM for the second.

Cc1cc(N[C@H](CCCCN[C@H](C)c2ccc(Cl)cn2)C(=O)NO)cc(C)c1F [Compound 7, (R)-6-(((R)-1-(5-chloropyridin-2-yl)ethyl)amino)-2-((4-fluoro-3,5-dimethylphenyl)amino)-N-hydroxyhexanamide] and Cc1cc(N[C@H](CCCCN[C@@H](c2ccc(Cl)cn2)C(C)C)C(=O)NO)cc(C)c1F [Compound 4, (R)-6-(((R)-1-(5-chloropyridin-2-yl)-2-methylpropyl)amino)-2-((4-fluoro-3,5-dimethylphenyl)amino)-N-hydroxyhexanamide] are within 1.5-fold of each other in Ki: 0.35 nM for the first, 0.45 nM for the second.

Cc1ccc([C@@H](CO)NCCCC[C@@H](Cc2cc(C)c(F)c(C)c2)C(=O)NO)nc1 [Compound 13, (S)-2-(4-fluoro-3,5-dimethylbenzyl)-N-hydroxy-6-(((S)-2-hydroxy-1-(5-methylpyridin-2-yl)ethyl)amino)hexanamide] and Cc1cc(C[C@H](CCCCN[C@H](C)c2ccc(Cl)cn2)C(=O)NO)cc(C)c1F [Compound 27, (S)-6-(((R)-1-(5-chloropyridin-2-yl)ethyl)amino)-2-(4-fluoro-3,5-dimethylbenzyl)-N-hydroxyhexanamide] are within 1.5-fold of each other in Ki: 0.07 nM for the first, 0.08 nM for the second.

Compared with Cc1cc(C[C@H](CCCCN[C@@H](c2ccc(F)cn2)C(C)C)C(=O)NO)cc(F)c1F [Compound 36, (S)-2-(3,4-difluoro-5-methylbenzyl)-6-(((R)-1-(5-fluoropyridin-2-yl)-2-methylpropyl)amino)-N-hydroxyhexanamide], Cc1cc(C[C@H](CCCCN[C@@H](c2ccc(Cl)cn2)C(C)C)C(=O)NO)cc(C)c1F [Compound 22, (S)-6-(((R)-1-(5-chloropyridin-2-yl)-2-methylpropyl)amino)-2-(4-fluoro-3,5-dimethylbenzyl)-N-hydroxyhexanamide] is 4.2-fold lower in Ki: 0.72 nM for the first, 0.17 nM for the second.

CCN(CCCC[C@@H](C[C@@H](OC)c1ccc(F)c(C)c1)C(=O)NO)Cc1ccc(Cl)cn1 [Compound 57, (S)-6-(((5-chloropyridin-2-yl)methyl)(ethyl)amino)-2-((R)-2-(4-fluoro-3-methylphenyl)-2-methoxyethyl)-N-hydroxyhexanamide] and CO[C@H](C[C@H](CCCCN[C@@H](c1ccc(Cl)cn1)C(C)C)C(=O)NO)c1ccc(F)c(C)c1 [Compound 58, (S)-6-(((R)-1-(5-chloropyridin-2-yl)-2-methylpropyl)amino)-2-((R)-2-(4-fluoro-3-methylphenyl)-2-methoxyethyl)-N-hydroxyhexanamide] are within 1.5-fold of each other in Ki: 2.8 nM for the first, 2.3 nM for the second.

First: CO[C@H](C[C@H](CCCCN(C)Cc1ccc(Br)cn1)C(=O)NO)c1ccc(F)cc1 [Compound 43, (S)-6-(((5-bromopyridin-2-yl)methyl)(methyl)amino)-2-((R)-2-(4-fluorophenyl)-2-methoxyethyl)-N-hydroxyhexanamide]
Second: CC[C@@H](NCCCC[C@@H](C[C@@H](OC)c1ccc(F)cc1)C(=O)NO)c1ccc(Cl)cn1 [Compound 56, (S)-6-(((R)-1-(5-chloropyridin-2-yl)propyl)amino)-2-((R)-2-(4-fluorophenyl)-2-methoxyethyl)-N-hydroxyhexanamide]
The Ki of the first is 16-fold higher: 12.5 nM for the first, 0.79 nM for the second.

Compared with Cc1cc(C[C@H](CCCCNCc2ccccn2)C(=O)NO)cc(C)c1F [Compound 9, (S)-2-(4-fluoro-3,5-dimethylbenzyl)-N-hydroxy-6-((pyridin-2-ylmethyl)amino)hexanamide], Cc1cc(C[C@H](CCCCNC(C)(C)c2ccc(F)cn2)C(=O)NO)cc(C)c1F [Compound 20, (S)-2-(4-fluoro-3,5-dimethylbenzyl)-6-((2-(5-fluoropyridin-2-yl)propan-2-yl)amino)-N-hydroxyhexanamide] is 5.3-fold lower in Ki: 1 nM for the first, 0.19 nM for the second.

Compared with CC(C)[C@@H](NCCCC[C@@H](Cc1cc(Cl)c(F)c(Cl)c1)C(=O)NO)c1ccc(Cl)cn1 [Compound 35, (S)-6-(((R)-1-(5-chloropyridin-2-yl)-2-methylpropyl)amino)-2-(3,5-dichloro-4-fluorobenzyl)-N-hydroxyhexanamide], Cc1cc(N[C@H](CCCCN[C@@H](c2ccc(F)cn2)C(C)C)C(=O)NO)cc(C)c1F [Compound 3, (R)-2-((4-fluoro-3,5-dimethylphenyl)amino)-6-(((R)-1-(5-fluoropyridin-2-yl)-2-methylpropyl)amino)-N-hydroxyhexanamide] is 2.1-fold lower in Ki: 0.42 nM for the first, 0.2 nM for the second.

Compared with CC[C@@H](NCCCC[C@@H](Nc1cc(C)c(F)c(C)c1)C(=O)NO)c1ccc(F)cn1 [Compound 8, (R)-2-((4-fluoro-3,5-dimethylphenyl)amino)-6-(((R)-1-(5-fluoropyridin-2-yl)propyl)amino)-N-hydroxyhexanamide], Cc1cc(N[C@H](CCCCN[C@@H](c2ncc(F)cc2F)C(C)C)C(=O)NO)cc(C)c1F [Compound 6, (R)-6-(((R)-1-(3,5-difluoropyridin-2-yl)-2-methylpropyl)amino)-2-((4-fluoro-3,5-dimethylphenyl)amino)-N-hydroxyhexanamide] is 2-fold lower in Ki: 0.57 nM for the first, 0.28 nM for the second. The second binds more tightly here.

Cc1cc(C[C@H](CCCCN(C)Cc2ccc(F)cn2)C(=O)NO)cc(C)c1F [Compound 18, (S)-2-(4-fluoro-3,5-dimethylbenzyl)-6-(((5-fluoropyridin-2-yl)methyl)(methyl)amino)-N-hydroxyhexanamide] and CO[C@H](C[C@H](CCCCN[C@@H](c1ncc(F)cc1F)C(C)C)C(=O)NO)c1ccc(F)cc1 [Compound 52, (S)-6-(((R)-1-(3,5-difluoropyridin-2-yl)-2-methylpropyl)amino)-2-((R)-2-(4-fluorophenyl)-2-methoxyethyl)-N-hydroxyhexanamide] are within 1.5-fold of each other in Ki: 1.6 nM for the first, 2.1 nM for the second.
